# Assay results from ChEMBL document CHEMBL3046660, “Synthesis, cytotoxic, and DNA binding studies of novel fluorinated condensed pyrano pyrazoles” (Med Chem Res, 2013).
# Active and inactive are the calls of the source. The calls are words filed in the database; no cut-off is given here.
# How the values were obtained:
# [1] = test system: HeLa; experiment: Cytotoxicity against Homo sapiens (human) HeLa cells assessed as inhibition of cell viability by MTT assay; assay type: functional, cell-based
# [2] = test system: MRC5; experiment: Cytotoxicity against Homo sapiens (human) MRC5 cells assessed as inhibition of cell viability by MTT assay; assay type: cell-based
# [3] = test system: A549; experiment: Cytotoxicity against Homo sapiens (human) A549 cells assessed as inhibition of cell viability by MTT assay; assay type: functional, cell-based
# [4] = Binding affinity to DNA assessed as peak current at 1 mM measured at potential of 0.45 V immediately after drug addition by cyclic voltammetry in presence of 1 mM cytosine
# [5] = Binding affinity to DNA assessed as peak current at 1 mM at potential of 1.3 V by cyclic voltammetry
# [6] = Binding affinity to DNA assessed as peak current at 1 mM measured at potential of 1.3 V at 3 hr after drug addition by cyclic voltammetry in presence of 3 mM cytosine
# [7] = Binding affinity to DNA assessed as peak current at 1 mM measured at potential of 0.45 V at 3 hr after drug addition by cyclic voltammetry in presence of 3 mM cytosine
# [8] = Binding affinity to DNA assessed as peak current at 1 mM at potential of 0.45 V by cyclic voltammetry
# [9] = Binding affinity to DNA assessed as peak current at 1 mM measured at potential of 1.3 V at 30 min after drug addition by cyclic voltammetry in presence of 1 mM cytosine
# [10] = Binding affinity to DNA assessed as peak current at 1 mM measured at potential of 1.3 V immediately after drug addition by cyclic voltammetry in presence of 1 mM cytosine
Activity [4],Activity [5],Activity [6],Activity [7],Activity [8],Activity [9],Activity [10],Compound,IC50 [1] [µM],IC50 [2] [µM],IC50 [3] [µM]
,,,,,,,N#CC1=C(N)Oc2c(c(C(F)(F)F)nn2-c2cccc(Cl)c2)C1c1ccco1 (stereo not given),> 100,> 100,> 100
,,,,,,,Cc1ccc(C2C(C#N)=C(N)Oc3c2c(C(F)(F)F)nn3-c2ccc(F)cc2)cc1 (stereo not given),> 100,> 100,> 100
,,,,,,,N#CC1=C(N)Oc2c(c(C(F)(F)F)nn2-c2ccccc2)C1c1cccs1 (stereo not given),74.1,> 100,75.5
,,,,,,,N#CC1=C(N)Oc2c(c(C(F)(F)F)nn2-c2ccccc2)C1c1ccco1 (stereo not given),> 100,> 100,> 100
,,,,,,,N#CC1=C(N)Oc2c(c(C(F)(F)F)nn2-c2ccc(F)cc2)C1c1cccs1 (stereo not given),> 100,> 100,> 100
,,,,,,,COc1ccc(C2C(C#N)=C(N)Oc3c2c(C(F)(F)F)nn3-c2cccc(Cl)c2)cc1 (stereo not given),> 100,> 100,89.4
,,,,,,,N#CC1=C(N)Oc2c(c(C(F)(F)F)nn2-c2cccc(Cl)c2)C1c1ccc([N+](=O)[O-])cc1 (stereo not given),> 100,> 100,> 100
,,,,,,,N#CC1=C(N)Oc2c(c(C(F)(F)F)nn2-c2ccc(F)cc2)C1c1ccc([N+](=O)[O-])cc1 (stereo not given),> 100,> 100,> 100
,,,,,,,COc1cccc(C2C(C#N)=C(N)Oc3c2c(C(F)(F)F)nn3-c2ccccc2)c1 (stereo not given),> 100,> 100,> 100
,,,,,,,N#CC1=C(N)Oc2c(c(C(F)(F)F)nn2-c2ccccc2)C1c1ccc([N+](=O)[O-])cc1 (stereo not given),> 100,> 100,> 100
Active,Active,inactive,Active,Active,Active,inactive,COc1ccc(C2C(C#N)=C(N)Oc3c2c(C(F)(F)F)nn3-c2ccc(F)cc2)cc1 (stereo not given),> 100,> 100,10.3
